From patent EP4755878A1, “PHOTOCHROMIC COMPOUND, PHENOL DERIVATIVE, CURABLE COMPOSITION, OPTICAL ARTICLE, LENS, AND EYEGLASS” (TOKUYAMA CORPORATION, priority 2023, dated 2025)

Experiment: Photochromic properties of photochromic laminate (plastic lens) made by coating method
Format: physicochemical
Conditions: for Color developing density at 23°C: absorbance difference after 240 seconds irradiation at 23°C; for Color developing density at 35°C: absorbance difference after 240 seconds irradiation at 35°C; for Maximum absorption wavelength: after color development, second absorption wavelength (lower line of pair)
Description: First, the photochromic compound obtained in Example 1 above, a photoinitiator, and polymerizable compounds were mixed to obtain a curable composition.
As the polymerizable compounds, a blend of the following radically-polymerizable monomers in combination was used.
• Polyethylene glycol dimethacrylate (average molecular weight: 736): 42 parts by mass • Polyethylene glycol dimethacrylate (average molecular weight: 536): 12 parts by mass • Trimethylolpropane trimethacrylate: 38 parts by mass • γ-Methacryloyloxypropyltrimethoxysilane: 2 parts by mass • Glycidyl methacrylate: 1 part by mass.
Note that in the curable composition, the photochromic compound obtained in Example 1 above was added to be 0.25 mmol taking the total amount of the radically-polymerizable monomers as 100 g. The following were used as additives.
(stabilizer, Irganox 245): 1 part by mass Bis(1,2,2,6,6-pentamethyl-4-piperidyl) sebacate: 3 parts by mass Leveling agent from DuPont Toray Specialty Materials K.K. (L7001): 0.1 parts by mass.
Note that the above-mentioned additives are described with blending ratios taking a total of the radically-polymerizable monomers as 100 parts by mass.
Using this curable composition, a photochromic laminate was obtained by a lamination process described below with the polymerization described below being carried out.
First, a thiourethane plastic lens with a center thickness of 2 mm and a refractive index of 1.60 was prepared as an optical substrate. Note that the thiourethane plastic lens had been alkaline-etched beforehand in a 10% aqueous sodium hydroxide solution at 50°C for 5 minutes, and then thoroughly washed with distilled water.
A spin coater (1H-DX2, manufactured by MIKASA CO., LTD) was used to coat a surface of the above-mentioned plastic lens with a moisture-curable primer (product name: TR-SC-P, manufactured by Tokuyama Corporation) at a rotation speed of 70 rpm for 15 seconds, followed by at 1000 rpm for 10 seconds. Then, about 2 g of the photochromic curable composition obtained as above was spin-coated at a rotation speed of 60 rpm for 40 seconds, followed by at 600 rpm for 10 to 20 seconds so as to achieve a photochromic coating layer with a film thickness of 40 µm.
The lens having the surface coated with the photochromic curable composition (photochromic coating layer) was irradiated with light for 90 seconds in a nitrogen gas atmosphere using a metal halide lamp with an output of 200 mW/cm^2 to cure the coating film. The coating was then further heated at 110°C for 1 hour to produce a photochromic laminate with a photochromic layer.
Photochromic laminates were produced using the photochromic compounds obtained in Examples 2 to 19 in the same manner as in Example 20.
Photochromic laminates were obtained in the same manner as in Example 20 using photochromic compounds represented by the following formulas (A) to (F). [drawing 143] [drawing 144] [drawing 145] [drawing 146] [drawing 147] [drawing 148] [drawing 149] [drawing 150]
The resulting photochromic laminates were evaluated by the methods described below.
Table 3 summarizes the results of Examples 20, 32, and 34, and Comparative Examples 1 to 6, and Table 4 summarizes the results of Examples 21 to 31, 33, and 35 to 38. The relationship between the fading half-life at 23°C and the color development ratio at the higher temperature of the photochromic laminates according to Examples and Comparative Examples are shown in a graph in FIG. 1.
Photochromic laminates were formed using the photochromic compound obtained in Examples 61 to 71 in the same manner as in Example 20.

Structure (SMILES): CCCOc1ccc(C2(c3ccc(OCCC)cc3)C=Cc3c4c(c5ccc(-c6ccc(OC)cc6OC)cc5c3O2)-c2ccc(N(C)c3ccc(F)cc3)cc2C4(CC)CC)cc1 [Formula (5-4)]
- Color developing density at 23°C (first absorption wavelength): 0.72 -
- Color developing density at 23°C (second absorption wavelength): 1.18 -
- Color developing density at 35°C (first absorption wavelength): 0.53 -
- Color developing density at 35°C (second absorption wavelength): 0.88 -
- Maximum absorption wavelength: 596 nm

Structure (SMILES): CCCCCCOc1ccc(C2(c3ccc(OCCCCCC)cc3)C=Cc3c4c(c5ccc(OC(F)(F)F)cc5c3O2)-c2ccc(N(C)c3ccc(C(F)(F)F)cc3)cc2C42CCC(CC)(CC)CC2)cc1 [Formula (6-3)]
- Color developing density at 23°C (first absorption wavelength): 0.37 -
- Color developing density at 23°C (second absorption wavelength): 0.77 -
- Color developing density at 35°C (first absorption wavelength): 0.22 -
- Color developing density at 35°C (second absorption wavelength): 0.46 -
- Maximum absorption wavelength: 598 nm

Structure (SMILES): COCCN(c1ccccc1)c1ccc2c(c1)C(CCOC)(CCOC)c1c3c(c4cc(C)c(N5CCOCC5)cc4c1-2)OC(c1ccc(OC)cc1)(c1ccc(OC)cc1)C=C3 [Formula (10-3)]
- Color developing density at 23°C (first absorption wavelength): 1.24 -
- Color developing density at 23°C (second absorption wavelength): 1.01 -
- Color developing density at 35°C (first absorption wavelength): 0.83 -
- Color developing density at 35°C (second absorption wavelength): 0.68 -
- Maximum absorption wavelength: 594 nm

Structure (SMILES): COc1ccc(C2(c3ccc(N4CCOCC4)cc3)C=Cc3c4c(c5cc(Sc6c(C)cccc6C)c(OC)cc5c3O2)-c2ccc(N3CCOc5cc(F)ccc53)cc2C42CC(C)(C)CC(C)(C)C2)cc1 (stereo not drawn) [Formula (11-4)]
- Color developing density at 23°C (first absorption wavelength): 0.51 -
- Color developing density at 23°C (second absorption wavelength): 0.51 -
- Color developing density at 35°C (first absorption wavelength): 0.31 -
- Color developing density at 35°C (second absorption wavelength): 0.30 -
- Maximum absorption wavelength: 620 nm

Structure (SMILES): COc1ccc2c3c(c4c(c2c1)OC(c1ccc(F)cc1)(c1ccc(N2CCOCC2)cc1)C=C4)C(CCC(F)(F)F)(CCC(F)(F)F)c1cc(N(C)c2ccc(C)cc2)ccc1-3 (stereo not drawn) [Formula (14-3)]
- Color developing density at 23°C (first absorption wavelength): 0.73 -
- Color developing density at 23°C (second absorption wavelength): 1.13 -
- Color developing density at 35°C (first absorption wavelength): 0.51 -
- Color developing density at 35°C (second absorption wavelength): 0.80 -
- Maximum absorption wavelength: 628 nm

Structure (SMILES): CCCC1(CCC)c2cc(N3CCCc4ccccc43)ccc2-c2c1c1c(c3cc(OC)ccc23)OC(c2ccc(OC)cc2)(c2ccc(OCCCO)cc2)C=C1 (stereo not drawn) [Formula (17-3)]
- Color developing density at 23°C (first absorption wavelength): 0.85 -
- Color developing density at 23°C (second absorption wavelength): 0.96 -
- Color developing density at 35°C (first absorption wavelength): 0.61 -
- Color developing density at 35°C (second absorption wavelength): 0.70 -
- Maximum absorption wavelength: 613 nm

Structure (SMILES): CCC1(CC)c2cc(N3CCOc4ccccc43)ccc2-c2c1c1c(c3cc(OC)ccc23)OC(c2ccc(OCCOC(=O)CCCCCCCCC(=O)OCCOc3ccc(C4(c5ccc(N6CCOCC6)cc5)C=Cc5c6c(c7ccc(OC)cc7c5O4)-c4ccc(N5CCOc7ccccc75)cc4C6(CC)CC)cc3)cc2)(c2ccc(N3CCOCC3)cc2)C=C1 (stereo not drawn) [Formula (19-3)]
- Color developing density at 23°C (first absorption wavelength): 0.55 -
- Color developing density at 23°C (second absorption wavelength): 0.88 -
- Color developing density at 35°C (first absorption wavelength): 0.34 -
- Color developing density at 35°C (second absorption wavelength): 0.57 -
- Maximum absorption wavelength: 629 nm

Structure (SMILES): CCCOc1ccc(C2(c3ccc(OCCC)cc3)C=Cc3c4c(c5cc(N(C)c6ccccc6)c(OC)cc5c3O2)-c2ccc(N(C)c3ccccc3)cc2C4(CCC)CCC)cc1 [Formula (61-4)]
- Color developing density at 23°C (first absorption wavelength): 1.37 -
- Color developing density at 23°C (second absorption wavelength): 0.88 -
- Color developing density at 35°C (first absorption wavelength): 1.03 -
- Color developing density at 35°C (second absorption wavelength): 0.64 -
- Maximum absorption wavelength: 619 nm

Structure (SMILES): COCCOCCOCCC1(CCOCCOCCOC)c2cc(N(c3ccccc3)c3ccccc3)ccc2-c2c1c1c(c3cc(OC)c(-c4c(OC)cc(OC)cc4OC)cc23)OC(c2ccc(OC)cc2)(c2ccc(OC)cc2)C=C1 [Formula (62-5)]
- Color developing density at 23°C (first absorption wavelength): 1.20 -
- Color developing density at 23°C (second absorption wavelength): 0.90 -
- Color developing density at 35°C (first absorption wavelength): 0.88 -
- Color developing density at 35°C (second absorption wavelength): 0.66 -
- Maximum absorption wavelength: 625 nm

Structure (SMILES): CCCCOc1ccc(C2(c3ccc(OC)cc3)C=Cc3c4c(c5cc(-c6ccc(C(F)(F)F)cc6)c(OC)cc5c3O2)-c2ccc(N(C)c3ccccc3)cc2C4(CCC)CCC)cc1 (stereo not drawn) [Formula (63-2)]
- Color developing density at 23°C (first absorption wavelength): 0.71 -
- Color developing density at 23°C (second absorption wavelength): 0.80 -
- Color developing density at 35°C (first absorption wavelength): 0.50 -
- Color developing density at 35°C (second absorption wavelength): 0.57 -
- Maximum absorption wavelength: 626 nm

Structure (SMILES): CCCCCCOc1ccc(C2(c3ccc(OCCCCCC)cc3)C=Cc3c4c(c5cc(N6CCC(C(F)(F)F)CC6)c(OC)cc5c3O2)-c2ccc(N(c3ccccc3)c3ccccc3)cc2C42CCC3(CCCCC3)CC2)cc1 [Formula (64-3)]
- Color developing density at 23°C (first absorption wavelength): 1.94 -
- Color developing density at 23°C (second absorption wavelength): 0.92 -
- Color developing density at 35°C (first absorption wavelength): 1.38 -
- Color developing density at 35°C (second absorption wavelength): 0.67 -
- Maximum absorption wavelength: 611 nm

Structure (SMILES): CCCCOCCC1(CCOCCCC)c2cc(N(c3ccccc3)c3ccccc3)ccc2-c2c1c1c(c3cc(OC)c(N(C)c4ccc(C(F)(F)F)cc4)cc23)OC(c2ccc(OC)cc2)(c2ccc(OCCC)cc2)C=C1 (stereo not drawn) [Formula (65-2)]
- Color developing density at 23°C (first absorption wavelength): 0.85 -
- Color developing density at 23°C (second absorption wavelength): 0.77 -
- Color developing density at 35°C (first absorption wavelength): 0.57 -
- Color developing density at 35°C (second absorption wavelength): 0.53 -
- Maximum absorption wavelength: 623 nm

Structure (SMILES): CCCCCC1(CCCCC)c2cc(N3CCOc4ccccc43)ccc2-c2c1c1c(c3cc(OC)c(-c4ccc(N5CCOc6ccccc65)cc4)cc23)OC(c2ccc(OC)cc2)(c2ccc(OC)cc2)C=C1 [Formula (66-5)]
- Color developing density at 23°C (first absorption wavelength): 1.37 -
- Color developing density at 23°C (second absorption wavelength): 1.03 -
- Color developing density at 35°C (first absorption wavelength): 1.09 -
- Color developing density at 35°C (second absorption wavelength): 0.82 -
- Maximum absorption wavelength: 602 nm

Structure (SMILES): CCC1(CC)c2cc(N(C)c3ccccc3)ccc2-c2c1c1c(c3cc(OC)c(-c4ccc(OC)cc4OC)cc23)OC(c2ccc(OC)cc2)(c2ccc(N3CCOCC3)cc2)C=C1 (stereo not drawn) [Formula (67-2)]
- Color developing density at 23°C (first absorption wavelength): 0.84 -
- Color developing density at 23°C (second absorption wavelength): 1.00 -
- Color developing density at 35°C (first absorption wavelength): 0.60 -
- Color developing density at 35°C (second absorption wavelength): 0.72 -
- Maximum absorption wavelength: 639 nm

Structure (SMILES): CCCCOCCC1(CCOCCCC)c2cc(N(c3ccccc3)c3ccc(C)cc3)ccc2-c2c1c1c(c3cc(OC)c(OC)cc23)OC(c2ccc(OC)cc2)(c2ccc(N3CCOCC3)cc2)C=C1 (stereo not drawn) [Formula (68-2)]
- Color developing density at 23°C (first absorption wavelength): 0.79 -
- Color developing density at 23°C (second absorption wavelength): 0.73 -
- Color developing density at 35°C (first absorption wavelength): 0.51 -
- Color developing density at 35°C (second absorption wavelength): 0.47 -
- Maximum absorption wavelength: 636 nm
